Measurements published in patent US20260132129A1 (Genesis Therapeutics, Inc., priority 2022, published 2026).

Biological target: T1, PI3Kα H1047R (T47D cells) (Homo sapiens, UniProt P42336, H1047R)
T1 construct: endogenous in cells; host or cells: T47D cells
Assay: PI3Kα cellular assay: pAKT HTRF in T47D cells after EGF stimulation
Assay type: cell-based
Settings: for IC50: T47D cells (PI3Kα H1047R), pAKT S473 HTRF
Summary of the method: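 T47D cells (PIK3CA H1047R) serum-starved 16 h, then treated 1 h at 37 °C with compound (10,000 nM top, 3-fold steps to 0.5 nM). After 10 min stimulation with 20 ng/mL EGF, cells were lysed and pAKT measured by HTRF.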

[1] = 1 hr compound, 20 ng/ml EGF 10 min
[2] = selectivity T47D (H1047R) over SKBR3 (WT), pAKT HTRF
[3] = selectivity of T47D (H1047R) over SKBR3 (WT) pAKT IC50

T1 sequence (P42336 whole entry H1047R): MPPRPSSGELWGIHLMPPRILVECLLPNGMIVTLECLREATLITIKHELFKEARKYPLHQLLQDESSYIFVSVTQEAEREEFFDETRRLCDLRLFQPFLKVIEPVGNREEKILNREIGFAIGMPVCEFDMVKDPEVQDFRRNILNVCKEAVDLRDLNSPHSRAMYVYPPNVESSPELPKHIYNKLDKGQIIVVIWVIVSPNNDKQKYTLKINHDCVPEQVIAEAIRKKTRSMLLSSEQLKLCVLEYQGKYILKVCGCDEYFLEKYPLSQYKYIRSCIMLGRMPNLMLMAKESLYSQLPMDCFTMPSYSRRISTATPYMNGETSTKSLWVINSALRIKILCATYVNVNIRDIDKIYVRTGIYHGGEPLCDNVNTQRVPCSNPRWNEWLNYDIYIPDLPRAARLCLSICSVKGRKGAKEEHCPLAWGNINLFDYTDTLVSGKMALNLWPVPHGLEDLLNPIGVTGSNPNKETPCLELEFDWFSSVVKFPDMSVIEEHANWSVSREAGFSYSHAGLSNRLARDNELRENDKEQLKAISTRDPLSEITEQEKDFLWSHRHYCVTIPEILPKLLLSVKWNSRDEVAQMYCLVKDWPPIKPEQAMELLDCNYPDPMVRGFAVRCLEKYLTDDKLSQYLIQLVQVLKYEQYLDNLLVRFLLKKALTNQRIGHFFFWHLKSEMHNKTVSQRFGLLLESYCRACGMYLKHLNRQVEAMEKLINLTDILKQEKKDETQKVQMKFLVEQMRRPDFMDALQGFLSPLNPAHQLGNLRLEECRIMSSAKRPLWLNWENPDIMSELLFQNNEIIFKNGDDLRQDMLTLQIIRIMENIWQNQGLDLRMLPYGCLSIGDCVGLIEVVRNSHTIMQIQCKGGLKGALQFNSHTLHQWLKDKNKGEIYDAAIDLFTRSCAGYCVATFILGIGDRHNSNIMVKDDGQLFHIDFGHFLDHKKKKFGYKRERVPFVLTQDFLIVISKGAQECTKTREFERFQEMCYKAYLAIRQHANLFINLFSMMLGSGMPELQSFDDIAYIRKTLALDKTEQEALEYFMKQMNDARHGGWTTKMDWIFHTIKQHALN
T1 sequence (P27986 whole entry partner): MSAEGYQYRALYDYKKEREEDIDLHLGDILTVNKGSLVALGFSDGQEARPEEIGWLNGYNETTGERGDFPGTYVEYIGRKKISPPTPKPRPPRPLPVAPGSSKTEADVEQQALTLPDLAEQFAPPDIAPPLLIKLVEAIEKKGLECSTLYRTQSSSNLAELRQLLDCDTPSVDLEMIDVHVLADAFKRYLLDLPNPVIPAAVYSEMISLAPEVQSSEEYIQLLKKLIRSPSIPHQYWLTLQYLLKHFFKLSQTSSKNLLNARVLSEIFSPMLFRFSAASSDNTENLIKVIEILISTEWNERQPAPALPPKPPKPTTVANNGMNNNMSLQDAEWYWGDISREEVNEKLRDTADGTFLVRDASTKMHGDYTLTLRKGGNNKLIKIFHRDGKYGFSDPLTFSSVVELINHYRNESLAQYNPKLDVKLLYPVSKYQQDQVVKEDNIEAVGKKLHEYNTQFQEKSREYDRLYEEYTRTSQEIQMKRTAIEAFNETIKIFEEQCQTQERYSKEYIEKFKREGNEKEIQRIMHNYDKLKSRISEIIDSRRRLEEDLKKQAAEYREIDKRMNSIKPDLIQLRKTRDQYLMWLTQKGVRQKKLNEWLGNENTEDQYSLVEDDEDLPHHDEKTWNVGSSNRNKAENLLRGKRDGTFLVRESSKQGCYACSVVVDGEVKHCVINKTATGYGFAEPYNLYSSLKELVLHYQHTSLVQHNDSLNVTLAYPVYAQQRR

| SMILES | IC50 [1] [nM] | T47D pAKT S473 HTRF IC50 (H1047R): T47D (H1047R) selectivity over SKBR3 (WT) [2] | IC50 (EGF stimulation) [nM] | T47D pAKT S473 HTRF IC50 (H1047R): T47D (H1047R) selectivity over SKBR3 (WT) [3] |
| --- | --- | --- | --- | --- |
| Cc1cc(C(C)Nc2ccccc2C(=O)O)c2nc(N3C[C@@H](C)O[C@@H](C)C3)cc(=O)n2c1 (stereo partly drawn) [Compound 315] | 500 to 2000 | B (B denotes 20-fold≥value>5-fold) |  |  |
| Cc1cc([C@H](C)Nc2ccccc2C(=O)O)c2nc(-c3ccc4c(C)nn(C5CC5)c4c3)c(C)c(=O)n2c1 [Compound 1126] |  | C (C denotes ≤5-fold) | > 2000 |  |
| Cc1cc(C(C)Nc2ccccc2C(=O)O)c2nc(-c3ccncc3)cc(=O)n2c1 (stereo not drawn) [Compound 267] | 100 to 500 | A (A denotes >20-fold) |  |  |
| Cc1cc([C@@H](C)Nc2ccccc2C(=O)O)c2nc(-c3ccc4c(C)nn(C)c4c3)cc(=O)n2c1 [Compound 819] |  |  | < 100 | A (A denotes >20-fold) |
| Cc1cc(C(C)Nc2ccccc2)c2nc(-c3ccc(N4CC(C)(C)C4)c(C#N)c3)cc(=O)n2c1 (stereo not drawn) [Compound 280] |  | C (C denotes ≤5-fold) |  |  |
| Cc1cc([C@H](C)Nc2ccccc2S(N)(=O)=O)c2nc(-c3cnc4c(c3)c(C)cn4C)c(C)c(=O)n2c1 [Compound 1060] |  | C (C denotes ≤5-fold) | > 2000 |  |
| Cc1cc(C(C)Nc2ccccc2C(=O)O)c2nc(-c3cccc(-c4nn[nH]n4)c3)cc(=O)n2c1 (stereo not drawn) [Compound 303] | > 2000 | C (C denotes ≤5-fold) |  |  |
| Cc1cc([C@@H](C)Nc2ccccc2S(N)(=O)=O)c2nc(-c3ccc(C4CCNCC4)nc3)c(C)c(=O)n2c1 [Compound 1344] |  | B (B denotes 20-fold≥value>5-fold) |  |  |
| CC1=CC2C(=O)C=C([C@H]3CC[C@H](CC4CC[C@H](O)C4)CC3)N=C2C([C@H](C)Nc2ccccc2C(=O)O)=C1 (stereo partly drawn) [Compound 778] |  |  | > 2000 | C (C denotes ≤5-fold) |
| Cc1cc([C@H](C)Nc2ccccc2C(=O)O)c2nc(N3C[C@H](C)C[C@H](C)C3)cc(=O)n2c1 [Compound 513] | > 2000 | C (C denotes ≤5-fold) |  |  |
| Cc1cc([C@H](C)Nc2ccccc2C(=O)O)c2nc(-c3cnc4c(c3)c(C)cn4C)c(C)c(=O)n2c1 [Compound 1051] |  |  |  | C (C denotes ≤5-fold) |
| Cc1cc([C@@H](C)Nc2ccccc2C(=O)O)c2nc(-c3ccc4c(c3)c(C)cn4C)c(C)c(=O)n2c1 (single isomer, unassigned) [Compound 902] |  |  | < 100 | A (A denotes >20-fold) |
| Cc1cc(C(C)Nc2ccccc2C(=O)O)c2nc(-c3ccc(C4CCN(C(=O)C5CC5)CC4)c(F)c3)c(C)c(=O)n2c1 (stereo not drawn) [Compound 1300] |  | A (A denotes >20-fold) | < 100 |  |
| Cc1cc(C(C)Nc2ccccc2C(=O)O)c2nc(N3CCSCC3)cc(=O)n2c1 (stereo not drawn) [Compound 140] | 100 to 500 | A (A denotes >20-fold) |  |  |
| Cc1cc([C@@H](C)Nc2ccccc2C(=O)O)c2nc(-c3ccc(C4CCC(C(=O)C5CC5)CC4)c(F)c3)c(C)c(=O)n2c1 (stereo partly drawn) [Compound 1318] |  | C (C denotes ≤5-fold) |  |  |
| CC1=NC(C)c2cc(-c3cc(=O)n4cc(C)cc([C@@H](C)Nc5ccccc5C(=O)O)c4n3)ccc21 (stereo partly drawn) [Compound 752] |  |  |  | C (C denotes ≤5-fold) |
| Cc1cc([C@H](C)Nc2ccccc2C(=O)O)c2nc(-c3cccnc3)c(C)c(=O)n2c1 [Compound 950] |  |  | > 2000 | C (C denotes ≤5-fold) |
| Cc1cc(C(C)Nc2ccccc2C(=O)O)c2nc(-c3ccc4c(c3)c(N)nn4C)cc(=O)n2c1 (single isomer, unassigned) [Compound 535] | > 2000 | C (C denotes ≤5-fold) |  |  |
| Cc1cc([C@@H](C)Nc2ccccc2C(=O)O)c2nc(-c3ccc(F)cc3)cc(=O)n2c1 (single isomer, unassigned) [Compound 424] | < 100 | A (A denotes >20-fold) |  |  |
| Cc1cc(C(C)Nc2ccccc2C(=O)O)c2nc(N3CCOC[C@H]3C)cc(=O)n2c1 (stereo partly drawn) [Compound 295] | 500 to 2000 | B (B denotes 20-fold≥value>5-fold) |  |  |
| COc1cc(-c2cc(=O)n3cc(C)cc(C(C)Nc4ccccc4C(=O)O)c3n2)cc(S(N)(=O)=O)c1 (stereo not drawn) [Compound 355] | 500 to 2000 | B (B denotes 20-fold≥value>5-fold) |  |  |
| Cc1cc([C@H](C)Nc2ccccc2C(=O)O)c2nc(-c3ccc4c(C)nn(C)c4c3)cc(=O)n2c1 [Compound 820] |  |  |  | C (C denotes ≤5-fold) |

| SMILES | IC50 [1] [nM] | T47D pAKT S473 HTRF IC50 (H1047R): T47D (H1047R) selectivity over SKBR3 (WT) [2] | IC50 (EGF stimulation) [nM] | T47D pAKT S473 HTRF IC50 (H1047R): T47D (H1047R) selectivity over SKBR3 (WT) [3] |
| --- | --- | --- | --- | --- |
| Cc1cc([C@@H](C)N[C@H](C(=O)O)c2ccccc2)c2nc(N3CCOCC3)cc(=O)n2c1 [Compound 648] |  |  | > 2000 | C (C denotes ≤5-fold) |
| Cc1cc(C(C)Nc2ccccc2-c2ccnnc2)c2nc(-c3cccnc3)c(C)c(=O)n2c1 (stereo not drawn) [Compound 1143] |  | A (A denotes >20-fold) | 100 to 500 |  |
| CC(=O)Oc1nc2ccc(-c3cc(=O)n4cc(C)cc([C@H](C)Nc5ccccc5C(=O)O)c4n3)cn2n1 [Compound 518] | > 2000 | C (C denotes ≤5-fold) |  |  |
| Cc1cc([C@@H](C)Nc2ccccc2C(=O)O)c2nc(-c3ccc(Cl)cc3F)c(C)c(=O)n2c1 [Compound 1069] |  | A (A denotes >20-fold) | < 100 |  |
| Cc1cc([C@H](C)Nc2ccccc2S(N)(=O)=O)c2nc(-c3ccc(F)cc3)cc(=O)n2c1 [Compound 587] | > 2000 | C (C denotes ≤5-fold) |  |  |
| COc1cc(-c2nc3c([C@H](C)Nc4ccccc4C(=O)O)cc(C)cn3c(=O)c2C)cn2ncc(C#N)c12 [Compound 1292] |  | C (C denotes ≤5-fold) | > 2000 |  |
| Cc1cc(C(C)Nc2ccccc2)c2nc(-c3cnc4[nH]nc(-c5ccccc5)c4c3)cc(=O)n2c1 (stereo not drawn) [Compound 265] | > 2000 | C (C denotes ≤5-fold) |  |  |
| Cc1cc([C@@H](C)Nc2ccccc2C(=O)O)c2nc(-c3cnc(C)c(Cl)c3)c(C)c(=O)n2c1 [Compound 1052] |  |  | 100 to 500 | A (A denotes >20-fold) |
| Cc1cc(C(C)Nc2ccccc2C(=O)O)c2nc(-c3ccc4c(c3)c(C)nn4C3CC3)cc(=O)n2c1 (stereo not drawn) [Compound 890] |  |  | < 100 | A (A denotes >20-fold) |
| Cc1cc([C@@H](C)Nc2ccccc2-c2ccnnc2)c2nc(-c3cnc(C)c(Cl)c3)c(C)c(=O)n2c1 [Compound 1141] |  | C (C denotes ≤5-fold) |  |  |
| Cc1cc([C@@H](C)Nc2cccc3[nH]c(=O)oc23)c2nc(N3CCOCC3)cc(=O)n2c1 [Compound 565] | > 2000 | C (C denotes ≤5-fold) |  |  |
| Cc1cc(C(C)NC2=C(C(=O)O)C=CCC2)c2nc(-c3ccc(CC4CCN(C(=O)C5CC5)CC4)nc3)cc(=O)n2c1 (stereo not drawn) [Compound 759] |  |  |  | C (C denotes ≤5-fold) |
| Cc1cc(C(C)Nc2ccccc2C(=O)O)c2nc(N3CCN(C(=O)CCN)CC3)cc(=O)n2c1 (stereo not drawn) [Compound 529] | > 2000 | C (C denotes ≤5-fold) |  |  |
| CC1=CN2C(=O)C(C)C(c3ccc(CCC(C)(C)C)cc3)N=C2C([C@H](C)Nc2ccccc2C(=O)O)=C1 (stereo partly drawn) [Compound 1151] |  | C (C denotes ≤5-fold) |  |  |
| Cc1cc(C(C)Nc2ccccc2C(=O)O)c2nc(N3CCSCC3)cc(=O)n2c1 (stereo not drawn) [Compound 239] | > 2000 | C (C denotes ≤5-fold) |  |  |
| Cc1cc([C@H](C)Nc2ccccc2C(=O)O)c2nc(-c3cnc(C)c(Cl)c3)cc(=O)n2c1 [Compound 1158] |  | C (C denotes ≤5-fold) | > 2000 |  |
| Cc1cc(C(C)Nc2ccccc2C(=O)O)c2nc(-c3cnc(C4CCOCC4)nc3)c(C)c(=O)n2c1 (stereo not drawn) [Compound 1272] |  | A (A denotes >20-fold) | 100 to 500 |  |
| Cc1cc([C@@H](C)Oc2ccccc2C2(O)CS(=O)(=O)C2)c2nc(-c3cccc(F)c3)c(C)c(=O)n2c1 [Compound 1392] |  | C (C denotes ≤5-fold) | > 2000 |  |
| Cc1cc([C@@H](C)Nc2ccccc2S(N)(=O)=O)c2nc(C3CCCOC3)c(C)c(=O)n2c1 (stereo partly drawn) [Compound 1283] |  | C (C denotes ≤5-fold) | > 2000 |  |
| Cc1cc([C@@H](C)Nc2ccccc2C(=O)O)c2nc(-c3cccc(C4CC4)c3)c(C)c(=O)n2c1 (single isomer, unassigned) [Compound 971] |  |  | < 100 | A (A denotes >20-fold) |
| Cc1cc(C(C)Nc2cccc3c2S(=O)(=O)NC3=O)c2nc(N3Cc4ccccc4C3)cc(=O)n2c1 (stereo not drawn) [Compound 998] |  |  |  | C (C denotes ≤5-fold) |
| Cc1cc([C@H](C)Nc2ccccc2C(=O)O)c2nc(-c3ccc4[nH]c(=O)sc4c3)c(C)c(=O)n2c1 [Compound 946] |  |  | 500 to 2000 | B (B denotes 20-fold≥value>5-fold) |
